Results as given in US6852686B2, “Methods for ameliorating icthyosiform skin diseases” (The United States of America as represented by the …, priority 1999, dated 2005).
“Also recorded” adds a separate entry of the source.

Legend:
[1] = target: T1, TGase 1 (Homo sapiens, UniProt P22735); assay: Lipid Z esterification of involucrin by TGase 1 on SLV; format: biochemical; details: for involucrin-lipid adduct formation by TGase 1 on SLV membranes: ceramide incorporated in SLV
T1 construct: Recombinant full-length human TGase 1 and TGase 3 enzymes were expressed in Sf9 cells by the BaculoGold system; made in house; host or cells: Sf9 insect cells, BaculoGold baculovirus system, pVL1392 vector
T1 sequence (P22735 1-817): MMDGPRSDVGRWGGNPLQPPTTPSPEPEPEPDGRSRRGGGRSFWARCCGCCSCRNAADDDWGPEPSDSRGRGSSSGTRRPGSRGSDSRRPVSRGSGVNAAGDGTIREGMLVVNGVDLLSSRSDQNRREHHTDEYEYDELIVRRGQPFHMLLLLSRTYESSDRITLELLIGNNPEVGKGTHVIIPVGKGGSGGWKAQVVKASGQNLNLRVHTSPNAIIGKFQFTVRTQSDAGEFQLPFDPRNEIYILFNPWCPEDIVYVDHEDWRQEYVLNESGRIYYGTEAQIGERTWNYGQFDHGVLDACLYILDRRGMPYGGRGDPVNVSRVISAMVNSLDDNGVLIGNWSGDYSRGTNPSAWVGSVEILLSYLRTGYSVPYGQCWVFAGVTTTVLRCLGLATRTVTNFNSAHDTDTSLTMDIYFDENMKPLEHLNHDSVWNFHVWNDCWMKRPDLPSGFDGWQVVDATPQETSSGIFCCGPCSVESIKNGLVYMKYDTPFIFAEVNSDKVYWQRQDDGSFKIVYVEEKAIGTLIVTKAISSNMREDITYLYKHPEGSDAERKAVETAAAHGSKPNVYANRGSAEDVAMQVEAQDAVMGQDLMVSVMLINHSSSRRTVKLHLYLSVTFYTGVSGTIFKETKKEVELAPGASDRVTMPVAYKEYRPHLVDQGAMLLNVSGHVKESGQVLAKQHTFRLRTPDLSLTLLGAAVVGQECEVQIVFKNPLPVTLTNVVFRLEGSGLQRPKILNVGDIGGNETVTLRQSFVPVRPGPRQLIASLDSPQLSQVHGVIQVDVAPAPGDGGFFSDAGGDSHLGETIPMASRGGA
Procedure: A mixture of 54 mol % dimyristoyl-phosphatidylcholine, 15 mol % dipalmitoyl-phosphatidylserine, 30 mol % cholesterol (all from Sigma, St. Louis, Mo.) and 1 mol % lipid Z was made in chloroform: methanol (9:1). This solution was dried down, taken up in aqueous buffer and dispersed by sonication as before (Nemes et al., J. Biol. Chem., 274: in press (1999)). The SLV suspension was equipped with TGase 1 enzyme by incubation at 37° C. for 15 min prior to adding substrates.
The reactions were stopped by the addition of EDTA to 10 mM.
Following reaction, 0.1 ml 20% SDS in water was added to the samples and the mixture was vortexed. This mixture was precipitated and washed three times with acetone-triethylamine-acetic acid (90:5:5) to remove the SDS and the unbound lipids (Konigsberg, W. H. and L. Henderson, Meth. Enzymol., 91: 254-259 (1983), herein expressly incorporated by reference in its entirety). After further washing with acetone the pellet was dried under vacuum and redissolved in 50 mM Tris-HCl (pH 7.5). Resolubilized protein was digested for 16 h with 2 mol % modified trypsin (Boehringer Mannheim). Peptides were resolved on a 250×2 mm PrimesphereC4 HPLC column (Phenomenex) and separated using a gradient elution from 75% buffer A (0.1% TFA in water) to 75% buffer B (50% 2-propanol in acetonitrile) in 40 min. Under these conditions, lipo-peptides were retarded but free peptides elute with the solvent front (Marekov, L. N. and P. M. Steinert, J. Biol. Chem., 273: 17763-17770 (1998), herein expressly incorporated by reference in its entirety).
Amino acid analysis of hydrolyzed samples (5.7 N HCl at 110° C. for 24 h in vacuo) was used to routinely measure amounts of lipo-peptides. Aliquots of isolated lipo-peptide peaks were attached to a solid support for sequencing (Marekov, L. N. and P. M. Steinert, J. Biol. Chem., 273: 17763-17770 (1998), herein expressly incorporated by reference in its entirety). Saponification of lipo-peptides was done with 1 N KOH in 80% methanol for 2 h at 37° C., after which the solution was acidified, dried and peptides were recovered by HPLC on a C18 column.

[2] = test system: synthetic lipid vesicles (SLV); assay: Membrane association (binding) to synthetic lipid vesicles, SLV pelleted by ultracentrifugation; details: for effect on involucrin binding to SLV when substituted for PS: SLV containing 8% PS plus 0-20% of the anionic phospholipid; for effect on Ca++-induced binding of involucrin to SLVs: added to buffer, SLVs with 15 mol % PS; for binding to SLV: SLV with 0 or 15% PS, with or without free Ca++
Procedure: Mixtures of dipalmitoyl-phosphatidylcholine, cholesterol, dipalmitoyl-phosphatidylserine (PS) and other lipids where indicated (all from Sigma, St. Louis, Mo.) were made in chloroform-methanol (95:5). In all cases, the mixtures contained 30% cholesterol. When the amounts of PS or other individual components were varied, phosphatidylcholine was added to make the mixture to 100%. Mixtures were made in 0.5 ml and contained 10 μmol of total lipids. The solvent was flushed away under a stream of N2, dried further under high vacuum for 4 h and then resuspended by vortexing in 0.5 ml of a buffer containing 50 mM Tris-Cl (pH 8.0), 100 mM NaCl, 3 mM NaN3, 5 mM DTT, and 200 mM sucrose. The mixture was sonicated on ice five times each for 1 min using a Branson 250 sonifier with micro probe tip, and allowed to stand at 23° C. to facilitate assembly of SLV. After 1 h the SLV were diluted with 0.5 ml of the above buffer without sucrose, and 200 μl aliquots were centrifuged at 100,000× g for 30 min in a Beckman Airfuge using the A-10 rotor. The top 175 μl was removed, and the pellet resuspended in another 150 μl of sucrose-free buffer. The final stock concentration was 11 μmol/ml.
In all cases, the buffer contained 50 mM Tris-HCl (pH 8.0), 100 mM NaCl, 1 mM DTT, 3 mM NaN3, and other additives where noted. Some mixtures also contained 1 mM CaCl2 or 2 mM EDTA. After mixing, the samples were centrifuged for 45 min at 100,000× g, and the protein content from 50 μl of supernatant was determined by amino acid analysis after acid hydrolysis. Data were usually not corrected for loss of SLV lipids, as in control experiments, cumulated losses were <4% as assayed by ^14C-phosphatidylcholine tracer, and thus neglected from the calculations.
The Ca^++ concentrations in the μM range were set by buffering free Ca^++ with chelators The desired Ca^++/chelator ratios were calculated by the WinMaxC 1.7 computer program (Bers, et al., Methods in Cell Biology Vol 40: A Practical Guide to the Study of Ca^2+ in Living Cells, Nuccitelli, R., ed., pp. 1-327 (1994), herein expressly incorporated by reference in its entirety), and were made by adding the required amounts of 1 M CaCl2 to 0.2 M stock solutions of the following chelators at pH 8.0. Final chelator concentrations in the samples were 10 mM in all cases. Sodium citrate was the chelator for the 20-500 μM Ca^++ range; sodium nitrilotriacetate for the 1-20 μM Ca^++ range; and sodium 1,2-bis(aminophenoxy)ethane-N,N,N′,N′ tetraacetate for the 0.1-1 μM Ca^++ range.

With CCCCCCO [1-hexanol] the “inhibition of formation of lipid Z ester” value ([1]; up to 2% 1-hexanol) was “did not significantly (p=0.05) inhibit”.

With NCCSSCCN [cystamine] the “inhibition of lipid Z esterification” value ([1]; 20 mM cystamine) was “significantly reduced; also recorded: completely inhibited”.

In the case of “phosphatidyl inositol [reference compound]”, the “effect on involucrin binding to SLV when substituted for PS” value (shortened to “effect on involucrin binding to SLV”) [2] is reported as “did not enhance binding”.

In the case of “phosphatidyl glycerol [reference compound]”, the “effect on involucrin binding to SLV” value [2] is reported as “did not enhance binding”.

In the case of O=C(O)CN(CCN(CC(=O)O)CC(=O)O)CC(=O)O [EDTA], the “inhibition of lipid Z esterification” value ([1]; EDTA present (5 mM elsewhere in the source)) is reported as “no lipo-peptides were recovered; also recorded: completely inhibited” and the “effect on Ca++-induced binding of involucrin to SLVs” value (“effect on Ca++-induced binding” for short) [2] is reported as “completely reversible”.

In the case of [Mg+2] [magnesium], the “effect on Ca++-induced binding” value [2] is reported as “did not support the binding”.

For 16-hydroxypalmitoylsphingosine, the “involucrin-lipid adduct formation by TGase 1 on SLV membranes” value [1] was “no involucrin-adduct formation was observed”.

O=C(O)CN(CCOCCOCCN(CC(=O)O)CC(=O)O)CC(=O)O [EGTA, reference compound] was tested, and the “effect on Ca++-induced binding” value [2] was “completely reversible”.

For phosphatidic acid [reference compound], the “effect on involucrin binding to SLV” value [2] was “did not enhance binding”.

In the case of NCCCCN [Putrescine, putrescine], the “inhibition of ester formation of each reactive Gln residue” value ([1]; 1 mM putrescine included in the reaction) is reported as 2-3 fold and the “reduction in ester yields” value ([1]; 20 mM putrescine added at 45 min, compared to 1 h levels) is reported as “significantly (p<0.01) reduced; also recorded: about a two-fold and time dependent reduction”.

In the case of palmitoylsphingosine, the “involucrin-lipid adduct formation by TGase 1 on SLV membranes” value [1] is reported as “no involucrin-adduct formation was observed”.

B1: TGase 3: recombinant full-length human TGase 3, activated with dispase (protein, UniProt Q08188 1-693, looked up)
chain: MAALGVQSINWQTAFNRQAHHTDKFSSQELILRRGQNFQVLMIMNKGLGSNERLEFIVSTGPYPSESAMTKAVFPLSNGSSGGWSAVLQASNGNTLTISISSPASAPIGRYTMALQIFSQGGISSVKLGTFILLFNPWLNVDSVFMGNHAEREEYVQEDAGIIFVGSTNRIGMIGWNFGQFEEDILSICLSILDRSLNFRRDAATDVASRNDPKYVGRVLSAMINSNDDNGVLAGNWSGTYTGGRDPRSWNGSVEILKNWKKSGFSPVRYGQCWVFAGTLNTALRSLGIPSRVITNFNSAHDTDRNLSVDVYYDPMGNPLDKGSDSVWNFHVWNEGWFVRSDLGPSYGGWQVLDATPQERSQGVFQCGPASVIGVREGDVQLNFDMPFIFAEVNADRITWLYDNTTGKQWKNSVNSHTIGRYISTKAVGSNARMDVTDKYKYPEGSDQERQVFQKALGKLKPNTPFAATSSMGLETEEQEPSIIGKLKVAGMLAVGKEVNLVLLLKNLSRDTKTVTVNMTAWTIIYNGTLVHEVWKDSATMSLDPEEEAEHPIKISYAQYEKYLKSDNMIRITAVCKVPDESEVVVERDIILDNPTLTLEVLNEARVRKPVNVQMLFSNPLDEPVRDCVLMVEGSGLLLGNLKIDVPTLGPKEGSRVRFDILPSRSGTKQLLADFSCNKFPAIKAMLSIDVAE
modifications: full-length activated by dispase cleavage
In the case of B1, the “binding to SLV” value [2] is reported as “unable to associate with an SLV of any composition tested”.

B2: loricrin: recombinant human CE protein (protein, UniProt P23490 1-312, looked up)
Loricrin: MSYQKKQPTPQPPVDCVKTSGGGGGGGGSGGGGCGFFGGGGSGGGSSGSGCGYSGGGGYSGGGCGGGSSGGGGGGGIGGCGGGSGGSVKYSGGGGSSGGGSGCFSSGGGGSGCFSSGGGGSSGGGSGCFSSGGGGSSGGGSGCFSSGGGGFSGQAVQCQSYGGVSSGGSSGGGSGCFSSGGGGGSVCGYSGGGSGCGGGSSGGSGSGYVSSQQVTQTSCAPQPSYGGGSSGGGGSGGSGCFSSGGGGGSSGCGGGSSGIGSGCIISGGGSVCGGGSSGGGGGGSSVGGSGSGKGVPICHQTQQKQAPTWPSK
For B2, the “binding to SLV” value [2] was “unable to directly attach to SLV”.
